According to patent US6706709B2, “Indolinone derivatives as protein kinase/phosphatase inhibitors” (Sugen, Inc., priority 2000, dated 2004):

Tests used:
[1] = biological target: T1, EGF Receptor (Homo sapiens, UniProt P00533); assay: bio EGF (EGF Receptor ELISA); type: biochemical
T1 construct: expressed in transfected cells; host or cells: NIH 3T3/C7 (mouse fibroblasts engineered to express human EGF-R)
Procedure: EGF Receptor kinase activity in cells genetically engineered to express human EGF-R was measured as described below:
The following materials and reagents were used:
b. 05-101 (UBI) (a monoclonal antibody recognizing an EGFR extracellular domain).
c. Anti-phosphotyrosine antibody (anti-Ptyr) (polyclonal).
d. Detection antibody: Goat anti-rabbit lgG horse radish peroxidase conjugate, TAGO, Inc., Burlingame, Calif.
Keep solution in dark at 4° C. until used.
The following protocol was used:
1. […] Coated plates are good for up to 10 days when stored at 4° C.
2. On day of use, remove coating buffer and replace with blocking buffer (5% Carnation Instant Non-Fat Dry Milk in PBS). Incubate the plate, shaking, at room temperature (about 23° C. to 25° C.) for 30 minutes. Just prior to use, remove blocking buffer and wash plate 4 times with TBST buffer.
2. Choose dishes having 80-90% confluence for the experiment. Trypsinize cells and stop reaction by adding 10% CS DMEM medium. Suspend cells in DMEM medium (10% CS DMEM medium) and centrifuge once at 1000 rpm at room temperature for 5 minutes.
3. Resuspend cells in seeding medium (DMEM, 0.5% bovine serum), and count the cells using trypan blue. Viability above 90% is acceptable. Seed cells in DMEM medium (0.5% bovine serum) at a density of 10,000 cells per well, 100 μL per well, in a 96 well microtiter plate. Incubate seeded cells in 5% CO2 at 37° C. for about 40 hours.
1. Check seeded cells for contamination using an inverted microscope. Dilute drug stock (10 mg/ml in DMSO) 1:10 in DMEM medium, then transfer 5 μL to a test well for a final drug dilution of 1:200 and a final DMSO concentration of 1%. Control wells receive DMSO alone. Incubate in 5% CO2 at 37° C. for one hour.
2. Prepare EGF ligand: dilute stock EGF in DMEM so that upon transfer of 10 μL dilute EGF (1:12 dilution), 25 nM final concentration is attained.
3. Prepare fresh 10 ml HNTG* sufficient for 100 μL per well wherein HNTG* comprises: HNTG stock (2.0 mL), milli-Q H2O (7.3 mL), EDTA, 100 mM, pH 7.0 (0.5 mL), Na3VO4 0.5 M (0.1 mL) and Na4(P2O7), 0.2 M (0.1 mL).
5. After two hours incubation with drug, add prepared EGF ligand to cells, 10 μL per well, to yield a final concentration of 25 nM. Control wells receive DMEM alone. Incubate, shaking, at room temperature, for 5 minutes.
6. Remove drug, EGF, and DMEM. Wash cells twice with PBS. Transfer HNTG* to cells, 100 μL per well. Place on ice for 5 minutes. Meanwhile, remove blocking buffer from other ELISA plate and wash with TBST as described above.
7. With a pipette tip securely fitted to a micropipettor, scrape cells from plate and homogenize cell material by repeatedly aspirating and dispensing the HNTG* lysis buffer. Transfer lysate to a coated, blocked, and washed ELISA plate. Incubate shaking at room temperature for one hour.
8. Remove lysate and wash 4 times with TBST. Transfer freshly diluted anti-Ptyr antibody to ELISA plate at 100 μL per well. Incubate shaking at room temperature for 30 minutes in the presence of the anti-Ptyr antiserum (1:3000 dilution in TBST).
9. Remove the anti-Ptyr antibody and wash 4 times with TBST. Transfer the freshly diluted TAGO 30 anti-rabbit IgG antibody to the ELISA plate at 100 μL per well. Incubate shaking at room temperature for 30 minutes (anti-rabbit IgG antibody: 1:3000 dilution in TBST).
10. Remove detection antibody and wash 4 times with TBST. Transfer freshly prepared ABTS/H2O2 solution to ELISA plate, 100 μL per well. Incubate at room temperature for 20 minutes. ABTS/H2O2 solution: 1.2 μL 30% H2O2in 10 mL ABTS stock.
11. Stop reaction by adding 50 μL 5N H2SO4 (optional), and determine O.D. at 410 nm.
12. The maximal phosphotyrosine signal is determined by subtracting the value of the negative controls from the positive controls. The percent inhibition of phosphotyrosine content for extract-containing wells is then calculated, after subtraction of the negative controls.

[2] = biological target: GST-Flk1 (UniProt P35918); assay: GST-FLK-1 bioassay (bio flkGST); type: biochemical
Procedure: This assay analyzes the tyrosine kinase activity of GST-Flk1 on poly glu tyr peptides.
2. poly glu tyr 4:1, lyophilizate (Sigma Catalog # P0275). Prepare 1 mg/mL poly glu tyr in sterile PBS and store in 1 ml aliquots at −20° C.
3. Preparation of poly glu tyr (pEY) coated assay plates: Coat 2 μg/well of poly glu tyr (pEY) in 100 μL PBS at room temperature for 2 hours or at +4° C. overnight. Cover plates well to prevent evaporation.
4. PBS Buffer: To make 1 liter of a 1× working solution, mix […], 1.15 g NA2HPO4, 0.2 g KCl and 8 g NaCl in approx. 900 mL dH2O. When all reagents have dissolved, adjust the pH to 7.2 with HCl. Bring total volume to 1L with dH2O.
5. PBS-Tw Buffer: To 1L of PBS Buffer, add […] Tween-20. Stir until dissolved.
6. TBB-Blocking Buffer: To make one liter of a 1× working solution, mix 1.21 g TRIS, 8.77 g NaCl, 1 mL TWEEN-20 in approximately 900 mL dH2O. Adjust pH to 7.2 with HCl. Add 10 g BSA, stir to dissolve. Bring total volume to 1 L with dH2O. Filter to remove particulate matter.
7. 1% BSA in PBS: To make a 1× working solution, add 10 g BSA to approx. 990 mL PBS buffer, stir to dissolve. Adjust total volume to 1 L with PBS buffer, filter to remove particulate matter.
9. GST-Flk1cd purified from sf9 recombinant baculovirus transformation.
13. Kinase Dilution Buffer (KDB): Mix 10 mL Hepes (pH 7.5), 1 mL of 5 M NaCl, 40 μL of 100 mM NaVO4 and 0.4 mL of 5% BSA in dH2O with 88.56 mL of dH2O.
14. NUNC-96-well V bottom polypropylene plates Applied Scientific Catalog # AS-72092
15. EDTA: Mix 14.12 g ethylenediaminetetraacetic acid (EDTA) to approx. 70 mL dH2O. Add 10N NaOH until EDTA dissolves. Adjust pH to 8.0. Adjust total volume to 100 mL with dH2O.
16. 1° Antibody Dilution Buffer: Mix 10 mL of 5% BSA in PBS buffer with 89.5 mL TBSTw.
17. Anti-phosphotyrosine monoclonal conjugated to horseradish peroxidase (PY99 HRP, Santa Cruz Biotech).
18. 2,2′-Azino-bis(3-ethylbenzthiazoline-6-sulfonic acid (ABTS, Moss, Cat. No. ABST).
1. Coat Corning 96 well ELISA plates with 2 μg of polyEY peptide in sterile PBS as described in step 3 of Materials and Reagents.
2. Remove unbound liquid from wells by inverting plate. Wash once with TBSTw. Pat the plate on a paper towel to remove excess liquid.
3. Add 100 μL of 1% BSA in PBS to each well. Incubate, with shaking, for 1 hr. at room temperature.
5. Soak wells with 50 mM Hepes pH7.5 (150 μL/well).
6. Dilute test compound with dH2O/4% DMSO to 4 times the desired final assay concentration in 96-well polypropylene plates.
7. Add 25 μL diluted test compound to ELISA plate.
8. Add 25 μL of 40 mM MnCl2 with 4×ATP (2 μM) to all wells.
9. Add 25 μL 0.5 M EDTA to negative control wells.
10. Dilute GST-Flk1 0.005 μg (5 ng)/well in KDB. For 50 ml KDB add 100 μL of 0.050 mg/mL GST-Flk1 enzyme.
11. Add 50 μL of diluted enzyme to each well.
12. Incubate, with shaking, for 15 minutes at room temperature.
13. Stop reaction by adding 50 μL of 250 mM EDTA (pH 8.0).
14. Wash 3× with TBSTw and pat plate on paper towel to remove excess liquid.
15. Add 100 μL per well anti-phosphotyrosine HRP conjugate, 1:5,000 dilution in antibody dilution buffer. Incubate, with shaking for 90 min. at room temperature.
16. Wash as described above in step 14.
17. Add 100 μL of room temperature ABTS solution to each well.
18. Incubate, with shaking, for 10 to 15 minutes. Remove any bubbles.
19. Stop reaction by adding 20 μL of 10% SDS.
20. Read assay on Dynatech MR7000 ELISA reader: test filter at 410 nM; reference filter at 630 nM.

T1 sequence (P00533 25-1210): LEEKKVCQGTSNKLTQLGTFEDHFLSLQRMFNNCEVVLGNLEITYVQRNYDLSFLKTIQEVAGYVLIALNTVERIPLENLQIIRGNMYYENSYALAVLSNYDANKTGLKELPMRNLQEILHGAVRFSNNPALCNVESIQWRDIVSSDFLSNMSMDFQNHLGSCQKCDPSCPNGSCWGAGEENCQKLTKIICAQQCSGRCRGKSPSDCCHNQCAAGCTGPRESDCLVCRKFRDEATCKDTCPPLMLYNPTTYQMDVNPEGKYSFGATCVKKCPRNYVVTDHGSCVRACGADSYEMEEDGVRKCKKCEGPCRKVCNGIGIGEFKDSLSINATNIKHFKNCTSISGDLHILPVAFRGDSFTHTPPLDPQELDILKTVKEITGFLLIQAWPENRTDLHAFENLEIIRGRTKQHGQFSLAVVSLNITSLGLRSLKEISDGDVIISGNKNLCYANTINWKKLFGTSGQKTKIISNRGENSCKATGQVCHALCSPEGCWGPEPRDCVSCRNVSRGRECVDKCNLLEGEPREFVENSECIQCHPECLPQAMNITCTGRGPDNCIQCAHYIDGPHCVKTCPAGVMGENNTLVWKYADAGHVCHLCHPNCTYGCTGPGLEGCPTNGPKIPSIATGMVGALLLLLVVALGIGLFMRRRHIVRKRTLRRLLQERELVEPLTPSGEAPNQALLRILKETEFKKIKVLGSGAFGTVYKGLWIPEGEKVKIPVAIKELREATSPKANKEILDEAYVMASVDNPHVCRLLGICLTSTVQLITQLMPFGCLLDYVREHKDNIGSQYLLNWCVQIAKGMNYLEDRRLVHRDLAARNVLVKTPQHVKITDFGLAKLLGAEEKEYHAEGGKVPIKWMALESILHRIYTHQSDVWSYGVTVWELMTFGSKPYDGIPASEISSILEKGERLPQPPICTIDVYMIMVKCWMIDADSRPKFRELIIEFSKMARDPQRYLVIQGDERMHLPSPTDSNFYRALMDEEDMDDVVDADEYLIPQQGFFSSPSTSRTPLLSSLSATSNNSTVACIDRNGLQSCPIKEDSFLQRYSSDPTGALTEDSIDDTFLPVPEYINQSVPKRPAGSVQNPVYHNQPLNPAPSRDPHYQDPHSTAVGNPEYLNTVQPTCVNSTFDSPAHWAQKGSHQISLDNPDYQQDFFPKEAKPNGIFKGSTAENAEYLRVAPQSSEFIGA

SMILES	IC50 [1]	IC50 [2]
CCN(CC)CCCc1ccc2[nH]c(C=C3C(=O)Nc4ccccc43)cc2c1 [IN-001, 3-[5-(3-diethylamino-propyl)-1H-indol-2-ylmethylene]-1,3-dihydro-indol-2-one]	> 100 µM	0.86 µM
CCN(CC)CCCc1ccc2[nH]c(C=C3C(=O)Nc4ccc(Br)cc43)cc2c1 [IN-002, 5-bromo-3-[5-(3-diethylamino-propyl)-1H-indol-2-ylmethylene]-1,3-dihydro-indol-2-one]	2.87 µM	0.03 µM
CCN(CC)CCCc1ccc2[nH]c(C=C3C(=O)Nc4cc(-c5ccccc5)ccc43)cc2c1 [IN-003, 3-[5-(3-diethylamino-propyl)-1H-indol-2-ylmethylene]-6-phenyl-1,3-dihydro-indol-2-one]	61.3 µM	1.56 µM
CCN(CC)CCCc1ccc2[nH]c(C=C3C(=O)Nc4ccc(-c5ccccc5)cc43)cc2c1 [IN-004, 3-[5-(3-diethylamino-propyl)-1H-indol-2-ylmethylene]-5-phenyl-1,3-dihydro-indol-2-one]	2.57 µM	0.47 µM
CN(C)CCOc1ccc2[nH]c(C=C3C(=O)Nc4ccc(-c5ccccc5)cc43)cc2c1 [IN-005, 3-[5-(2-dimethylamino-ethoxy)-1H-indol-2-ylmethylene]-5-phenyl-1,3-dihydro-indol-2-one]	16.3 µM	0.31 µM
O=C1Nc2ccc(-c3ccccc3)cc2C1=Cc1cc2cc(OCCN3CCCC3)ccc2[nH]1 [IN-006, 5-phenyl-3-[5-(2-pyrrolidin-1-yl-ethoxy)-1H-indol-2-ylmethylene]-1,3-dihydro-indol-2-one]	4.69 µM	0.16 µM
O=C1Nc2ccccc2C1=Cc1cc2cc(OCCN3CCOCC3)ccc2[nH]1 [IN-007, 3-[5-(2-morpholin-4-yl-ethoxy)-1H-indol-2-ylmethylene]-1,3-dihydro-indol-2-one]	37.4 µM	0.4 µM
O=C1Nc2ccc(Br)cc2C1=Cc1cc2cc(OCCN3CCOCC3)ccc2[nH]1 [IN-008, 5-bromo-3-[5-(2-morpholin-4-yl-ethoxy)-1H-indol-2-ylmethylene]-1,3-dihydro-indol-2-one]	1.97 µM	0.22 µM
O=C1Nc2cc(-c3ccccc3)ccc2C1=Cc1cc2cc(OCCN3CCOCC3)ccc2[nH]1 [IN-009, 3-[5-(2-morpholin-4-yl-ethoxy)-1H-indol-2-ylmethylene]-6-phenyl-1,3-dihydro-indol-2-one]	> 100 µM	9.42 µM
CN(C)CCOc1ccc2[nH]c(C=C3C(=O)Nc4ccccc43)cc2c1 [IN-010, 3-[5-(2-dimethylamino-ethoxy)-1H-indol-2-ylmethylene]-1,3-dihydro-indol-2-one]	88.8 µM	0.35 µM
CN(C)CCOc1ccc2[nH]c(C=C3C(=O)Nc4ccc(Br)cc43)cc2c1 [IN-011, 5-bromo-3-[5-(2-dimethylamino-ethoxy)-1H-indol-2-ylmethylene]-1,3-dihydro-indol-2-one]	1.36 µM	0.52 µM
CN(C)CCOc1ccc2[nH]c(C=C3C(=O)Nc4cc(-c5ccccc5)ccc43)cc2c1 [IN-012, 3-[5-(2-dimethylamino-ethoxy)-1H-indol-2-ylmethylene]-6-phenyl-1,3-dihydro-indol-2-one]	> 100 µM	1.95 µM
O=C1Nc2ccccc2C1=Cc1cc2cc(OCCN3CCCC3)ccc2[nH]1 [IN-013, 3-[5-(2-pyrrolidin-1-yl-ethoxy)-1H-indol-2-ylmethylene]-1,3-dihydro-indol-2-one]	41.3 µM	0.1 µM
O=C1Nc2ccc(Br)cc2C1=Cc1cc2cc(OCCN3CCCC3)ccc2[nH]1 [IN-014, 5-bromo-3-[5-(2-pyrrolidin-1-yl-ethoxy)-1H-indol-2-ylmethylene]-1,3-dihydro-indol-2-one]	43.5 µM	0.003 µM
O=C1Nc2cc(-c3ccccc3)ccc2C1=Cc1cc2cc(OCCN3CCCC3)ccc2[nH]1 [IN-015, 6-phenyl-3-[5-(2-pyrrolidin-1-yl-ethoxy)-1H-indol-2-ylmethylene]-1,3-dihydro-indol-2-one]	70.6 µM	0.99 µM
NS(=O)(=O)c1ccc2c(c1)C(=Cc1c[nH]c3ccccc13)C(=O)N2 [IN-065, 3-(1H-indol-3-ylmethylene)-2-oxo-2,3-dihydro-1H-indole-5-sulfonic acid amide]	–	11.7 µM
